# Read-outs that look alike come from different tables or passages of the source.
# What was measured:
# Format in all cases: cell-based
# HIV-1IIIB = assay: Inhibition of HIV-1IIIB infection in MT-4 cells (XTT staining); details: HIV-1IIIB in MT-4 cells; for EC50: 6 days incubation, XTT, read-out: EC50 (50% inhibition of virus replication)
# Method: (§1) The compounds were evaluated for inhibition of HIV-1IIIB infection and cellular toxicity in MT-4 cells.
# (§2) The MT-4 cells and […] used in the HIV-1 inhibition assays were obtained from the AIDS Research and Reference Program (Rockville, MD) and propagated as recommended by the supplier.
# (§3) Fifty microliters (50 μL) of MT-4 cells at a density of 1.0×10^4 cells/well in 10% complete RPMI-1640 (10% FBS supplemented with 1% L-glutamine and 1% Penicillin/Streptomycin) media were plated in a 96-well flat bottom plate. One-hundred microliters (100 μL) of each compound at 12 concentrations were added in triplicate followed by 50 μL of HIV-1IIIB at a pre-determined titer. The cultures were incubated for 6 days at 37° C./5% CO2. Following the incubation, the cells were stained with XTT for evaluation of compound efficacy and cellular toxicity, as described below.
# (§4) Efficacy and toxicity values for the test materials were derived by measuring the reduction of the tetrazolium dye XTT (2,3-bis(2-methoxy-4-nitro-5-sulfophenyl)-5-[(phenylamino)carbonyl]-2H-tetrazolium hydroxide). XTT in metabolically active cells is metabolized by the mitochondrial enzyme NADPH oxidase to a soluble formazan product. XTT solution was prepared daily as a stock of 1 mg/mL in RPMI-1640 without additives. Phenazine methosulfate (PMS) solution was prepared at 0.15 mg/mL in DPBS and stored in the dark at −20° C. XTT/PMS stock was prepared immediately before use by adding 40 μL of PMS per mL of XTT solution. Fifty μL (50 μL) of XTT/PMS was added to each well of the plate and the plate incubated for 4 hours at 37° C. The 4-hour incubation has been empirically determined to be within the linear response range for XTT dye reduction with the indicated numbers of cells for each assay. The plates were sealed and inverted several times to mix the soluble formazan product and the plate was read at 450 nm (650 nm reference wavelength) with a Molecular Devices SpectraMax Plus 384 96 well plate format spectrophotometer.
# (§5) Microsoft Excel 2010 in combination with XLfit4 was used to analyze and graph the data. EC50 (50% inhibition of virus replication), TC50 (50% reduction in cell viability) and a therapeutic index (TC50/EC50) are provided. Raw data for both antiviral activity and toxicity with a graphic representation of the data are provided in a printout summarizing the compound activity.
# [1] = Cellular toxicity in MT-4 cells (XTT staining); details: human, 6 days incubation, read-out: TC50 (50% reduction in cell viability)
# Method: as §1, §2, §3, §4, §5
# MT-4 cells = assay: Cellular toxicity in MT-4 cells (XTT staining); details: 6 days incubation, read-out: TC50 (50% reduction in cell viability)
# Method: as §1, §2, §3, §4, §5
# [2] = Human immunodeficiency virus 1, MT4, 144 h
SMILES,Therapeutic Index (TC50/EC50) (HIV-1IIIB),EC50 (HIV-1IIIB; [2]),CC50 at 6 days [1],EC50 (HIV-1IIIB),CC50 (MT-4 cells)
"Cn1nc(NS(C)(=O)=O)c2c(Cl)ccc(-n3c([C@H](Cc4cc(F)cc(F)c4)NC(=O)Cn4nc(C(F)(F)F)c5c4C(F)(F)[C@@H]4C[C@H]54)nc4c(c3=O)CCCN4)c21 (atropisomer, axis not shown) [Compound 34]",>42.6,2.35 nM,> 100 nM,,
Cn1nc(NS(C)(=O)=O)c2c(Cl)ccc(-n3c([C@H](Cc4cc(F)cc(F)c4)NC(=O)Cn4nc(C(F)(F)F)c5c4C(F)(F)[C@@H]4C[C@H]54)nc4nc(NCCO)sc4c3=O)c21 [Compound 47],>83.3,1.2 nM,> 100 nM,,
"Cn1nc(NS(C)(=O)=O)c2c(Cl)ccc(-n3c([C@H](Cc4cc(F)cc(F)c4)NC(=O)Cn4nc(C(F)(F)F)c5c4C(F)(F)[C@@H]4C[C@H]54)nc4sc(-c5ccc(F)cc5)cc4c3=O)c21 (atropisomer, axis not shown) [Compound 42]",>26.4,3.79 nM,> 100 nM,,
Cn1nc(NS(C)(=O)=O)c2c(Cl)ccc(-n3c([C@H](Cc4cc(F)cc(F)c4)NC(=O)Cn4nc(C(F)(F)F)c5c4C(F)(F)[C@@H]4C[C@H]54)nc4sc(CC(F)(F)F)cc4c3=O)c21 [Compound 43],>31.7,3.15 nM,> 100 nM,,
"Cn1nc(NS(C)(=O)=O)c2c(Cl)ccc(-n3c([C@H](Cc4cc(F)cc(F)c4)NC(=O)Cn4nc(C(F)(F)F)c5c4C(F)(F)[C@@H]4C[C@H]54)nc4onc(-c5ccccc5)c4c3=O)c21 (atropisomer, axis not shown) [Compound 37]",>9.0,,> 100 nM,11.1 nM,
CN(CCC(F)(F)F)c1nc2nc([C@H](Cc3cc(F)cc(F)c3)NC(=O)Cn3nc(C(F)(F)F)c4c3C(F)(F)[C@@H]3C[C@H]43)n(-c3ccc(Cl)c4c(NS(C)(=O)=O)nn(C)c34)c(=O)c2s1 [Compound 50],>1136.4,0.088 nM,> 100 nM,,
Cn1nc(NS(C)(=O)=O)c2c(Cl)ccc(-n3c([C@H](Cc4cc(F)cc(F)c4)NC(=O)Cn4nc(C(F)(F)F)c5c4C(F)(F)C4CC54)nc4nc(S(C)(=O)=O)sc4c3=O)c21 (stereo partly drawn) [Compound 30],,,,> 100 nM,> 100 nM
"Cn1nc(NS(C)(=O)=O)c2c(Cl)ccc(-n3c([C@H](Cc4cc(F)cc(F)c4)NC(=O)Cn4nc(C(F)(F)F)c5c4C(F)(F)[C@@H]4C[C@H]54)nc4nc(N5CCOC(C)(C)C5)sc4c3=O)c21 (atropisomer, axis not shown) [Compound 40]",>492.6,0.203 nM,> 100 nM,,
Cn1nc(NS(C)(=O)=O)c2c(Cl)ccc(-n3c([C@H](Cc4cc(F)cc(F)c4)NC(=O)Cn4nc(C(F)(F)F)c5c4C(F)(F)C4CC54)nc4nc(S(C)(=O)=O)sc4c3=O)c21 (stereo partly drawn) [Compound 29],>2.9,,> 100 nM,34.9 nM,
Cn1nc(NS(C)(=O)=O)c2c(Cl)ccc(-n3c([C@H](Cc4cc(F)cc(F)c4)NC(=O)Cn4nc(C(F)(F)F)c5c4C(F)(F)[C@@H]4C[C@H]54)nc4nc(N5CCOCC5)sc4c3=O)c21 [Compound 51],>518.1,0.193 nM,> 100 nM,,
CS(=O)(=O)Nc1nn(CC(F)(F)F)c2c(-n3c([C@H](Cc4cc(F)cc(F)c4)NC(=O)Cn4nc(C(F)(F)F)c5c4C(F)(F)[C@@H]4C[C@H]54)nc4sccc4c3=O)ccc(Cl)c12 [Compound 1],>312.5,0.32 nM,> 100 nM,,
"Cn1nc(NS(C)(=O)=O)c2c(Cl)ccc(-n3c([C@H](Cc4cc(F)cc(F)c4)NC(=O)Cn4nc(C(F)(F)F)c5c4C(F)(F)[C@@H]4C[C@H]54)nc4sccc4c3=O)c21 (atropisomer, axis not shown) [Compound 32]",,,> 100 nM,> 100 nM,
"Cn1nc(NS(C)(=O)=O)c2c(Cl)ccc(-n3c([C@H](Cc4cc(F)cc(F)c4)NC(=O)Cn4nc(C(F)(F)F)c5c4C(F)(F)[C@@H]4C[C@H]54)nc4ncsc4c3=O)c21 (atropisomer, axis not shown) [Compound 35]",,,> 100 nM,> 100 nM,
"Cn1nc(NS(C)(=O)=O)c2c(Cl)ccc(-n3c([C@H](Cc4cc(F)cc(F)c4)NC(=O)Cn4nc(C(F)(F)F)c5c4C(F)(F)[C@@H]4C[C@H]54)nc4ncsc4c3=O)c21 (atropisomer, axis not shown) [Compound 36]",>625.0,,,0.16 nM,> 100 nM
"Cn1nc(NS(C)(=O)=O)c2c(Cl)ccc(-n3c([C@H](Cc4cc(F)cc(F)c4)NC(=O)Cn4nc(C(F)(F)F)c5c4C(F)(F)[C@@H]4C[C@H]54)nc4nc(OCCC(F)(F)F)sc4c3=O)c21 (atropisomer, axis not shown) [Compound 53]",>980.4,0.102 nM,> 100 nM,,
Cn1nc(NS(C)(=O)=O)c2c(Cl)ccc(-n3c([C@H](Cc4cc(F)cc(F)c4)NC(=O)Cn4nc(C(F)(F)F)c5c4C(F)(F)[C@@H]4C[C@H]54)nc4cc(N5CCCC5)sc4c3=O)c21 [Compound 39],>5.4,18.6 nM,> 100 nM,,
COCCNc1nc2nc([C@H](Cc3cc(F)cc(F)c3)NC(=O)Cn3nc(C(F)(F)F)c4c3C(F)(F)[C@@H]3C[C@H]43)n(-c3ccc(Cl)c4c(NS(C)(=O)=O)nn(C)c34)c(=O)c2s1 [Compound 46],>510.2,0.196 nM,> 100 nM,,
"Cc1nsc2nc([C@H](Cc3cc(F)cc(F)c3)NC(=O)Cn3nc(C(F)(F)F)c4c3C(F)(F)[C@@H]3C[C@H]43)n(-c3ccc(Cl)c4c(NS(C)(=O)=O)nn(C)c34)c(=O)c12 (atropisomer, axis not shown) [Compound 44]",>2.9,,> 100 nM,34.1 nM,
"Cn1nc(NS(C)(=O)=O)c2c(Cl)ccc(-n3c([C@H](Cc4cc(F)cc(F)c4)NC(=O)Cn4nc(C(F)(F)F)c5c4C(F)(F)[C@@H]4C[C@H]54)nc4sccc4c3=O)c21 (atropisomer, axis not shown) [Compound 33]",>294.1,,,0.34 nM,> 100 nM
"Cn1nc(NS(C)(=O)=O)c2c(Cl)ccc(-n3c([C@H](Cc4cc(F)cc(F)c4)NC(=O)Cn4nc(C(F)(F)F)c5c4C(F)(F)[C@@H]4C[C@H]54)nc4nc(N5CC6(COC6)C5)sc4c3=O)c21 (atropisomer, axis not shown) [Compound 41]",>193.4,0.517 nM,> 100 nM,,
CS(=O)(=O)Nc1nn(CC(F)(F)F)c2c(-n3c([C@H](Cc4cc(F)cc(F)c4)NC(=O)Cn4nc(C(F)(F)F)c5c4C(F)(F)[C@@H]4C[C@H]54)nc4ncsc4c3=O)ccc(Cl)c12 [Compound 3],>625.0,0.16 nM,> 100 nM,,
Cn1nc(NS(C)(=O)=O)c2c(Cl)ccc(-n3c([C@H](Cc4cc(F)cc(F)c4)NC(=O)Cn4nc(C(F)(F)F)c5c4C(F)(F)[C@@H]4C[C@H]54)nc4nc(NCCC(F)(F)F)sc4c3=O)c21 [Compound 49],>458.7,0.218 nM,> 100 nM,,
"CN(C)c1nc2nc([C@H](Cc3cc(F)cc(F)c3)NC(=O)Cn3nc(C(F)(F)F)c4c3C(F)(F)[C@@H]3C[C@H]43)n(-c3ccc(Cl)c4c(NS(C)(=O)=O)nn(C)c34)c(=O)c2s1 (atropisomer, axis not shown) [Compound 48]",>432.9,0.231 nM,> 100 nM,,
CC1(C)CN(c2nc3nc([C@H](Cc4cc(F)cc(F)c4)NC(=O)Cn4nc(C(F)(F)F)c5c4C(F)(F)[C@@H]4C[C@H]54)n(-c4ccc(Cl)c5c(NS(C)(=O)=O)nn(CC(F)(F)F)c45)c(=O)c3s2)CCO1 (racemic) [Compound 52],>653.6,0.153 nM,> 100 nM,,
